{"source": "patent US6688468B2", "about": "“Pharmaceutical kit for oxygen-sensitive drugs” (Pfizer Inc., priority 2001, dated 2004)", "experiment": "18-week stability of Compound I tablets packaged in 60 cc HDPE bottles with HIS; degradation products by HPLC", "type": "physicochemical", "conditions": "Initial bulk, 0 weeks", "procedure": "In an initial evaluation of oxygen absorbers, the bottles were sealed with heat induction seals (HIS). The following samples were prepared by placing the following materials in a round HDPE bottle (60 cc capacity) and sealing with a heat-induction seal:\nTablets were stored eighteen weeks under three different conditions: (1) 5° C./75% relative humidity (RH); (2) 40° C./75% RH; and (3) 50° C./20% RH. Air in the bottles was sampled using a gas tight syringe equipped with a septum seal as the foil was punctured. The sampled air was analyzed using a Mocon™ headspace analyzer (PAL Model 450 available from Mocon™ Inc., Minneapolis, Minn.). Each tablet was dissolved in 250 ml of a solution prepared by dissolving 21.6 g of octane sulfonic acid and 6.8 g of potassium phosphate in 1.0 liters of purified water and adjusting the pH to 3 with phosphoric acid followed by the addition of 818 mL of acetonitrile. Degradation products were identified by high pressure liquid chromatography (HPLC) (Waters sym C8 column, 15 cm×3.9 mm, nylon acrodisc filter, HPLC HP 1100 series, 20 μl injection volume, flow of 1 mL/min). The degradation products were compared against three known standards (Compounds I-1A′, I-1A″ and I-1B)."}
{"smiles": "COc1ccc(C(C)C)cc1CN[C@@H]1C2CCN(CC2)[C@@H]1C(c1ccccc1)c1ccccc1", "note": "[Compound I]", "values": [{"measurement": "I-1A′", "value": 0.000, "unit": "Wt %"}, {"measurement": "I-1A″", "value": 0.300, "unit": "Wt %"}, {"measurement": "I-1B", "value": 0.027, "unit": "Wt %"}, {"measurement": "Total", "value": 0.37, "unit": "%"}, {"measurement": "Unknown (first Unknown column)", "value": 0.01, "unit": "Area %"}, {"measurement": "Unknown (second Unknown column)", "value": 0.03, "unit": "Area %"}]}
